According to ChEMBL document CHEMBL2331291, “Targeting CCR2 Receptor To Treat Inflammation Diseases and Disorders” (ACS Med Chem Lett, 2013):

Legend:
[1] = molecular target: C-C chemokine receptor type 5 (Homo sapiens, UniProt P51681); test: Displacement of [125I]RANTES from human CCR5 expressed in CHO cell membranes coexpressing Gal6 after 6 hrs by scintillation counting analysis
[2] = molecular target: C-C chemokine receptor type 2 (Homo sapiens, UniProt P41597); test: Displacement of [125I]MCP1 from CCR2 in human THP1 cell membranes after 8 hrs by scintillation counting analysis; set-up: species or system THP-1
Sequence of C-C chemokine receptor type 2 (P41597 whole entry): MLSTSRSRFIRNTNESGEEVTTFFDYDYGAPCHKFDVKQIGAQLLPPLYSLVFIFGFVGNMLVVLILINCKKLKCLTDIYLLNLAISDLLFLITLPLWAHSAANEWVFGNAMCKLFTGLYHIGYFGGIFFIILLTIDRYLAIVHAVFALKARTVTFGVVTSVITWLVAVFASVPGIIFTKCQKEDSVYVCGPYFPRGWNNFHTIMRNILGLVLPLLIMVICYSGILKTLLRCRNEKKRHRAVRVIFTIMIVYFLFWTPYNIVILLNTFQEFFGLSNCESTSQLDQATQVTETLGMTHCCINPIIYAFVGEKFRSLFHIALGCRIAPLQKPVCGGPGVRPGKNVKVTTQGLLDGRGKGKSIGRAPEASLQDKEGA

Sequence of C-C chemokine receptor type 5 (P51681 whole entry): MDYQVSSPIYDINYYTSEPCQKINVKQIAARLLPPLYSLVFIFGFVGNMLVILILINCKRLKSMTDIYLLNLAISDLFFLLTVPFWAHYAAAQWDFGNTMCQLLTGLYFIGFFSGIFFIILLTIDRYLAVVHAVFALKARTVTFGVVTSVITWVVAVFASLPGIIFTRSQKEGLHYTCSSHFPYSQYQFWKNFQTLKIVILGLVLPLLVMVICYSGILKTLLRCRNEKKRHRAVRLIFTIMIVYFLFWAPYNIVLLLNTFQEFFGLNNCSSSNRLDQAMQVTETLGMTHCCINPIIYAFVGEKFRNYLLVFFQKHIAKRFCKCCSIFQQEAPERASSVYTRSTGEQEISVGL

- Ki [1]: 150 nM
- Ki [2]: 2 nM
SMILES: CO[C@@H]1COCC[C@@H]1NC1CCN(C(=O)c2nc(C(F)(F)F)nc(N3CCc4cc(C(F)(F)F)ccc4C3)c2C)CC1
